From PubChem BioAssay (NCI)
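48-hour exposure; five concentrations; linearly interpolated endpoints. GI50 marks 50% less growth. TGI: concentration producing complete growth inhibition.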

Experiments:
Experiment in all cases: DTP human tumour cell line panel, 48 h
EKVX NSCLC = test system: EKVX NSCLC
SK-MEL-28 melanoma = test system: SK-MEL-28 melanoma
SW-620 colon = test system: SW-620 colon
MCF7 breast = test system: MCF7 breast
ACHN renal = test system: ACHN renal
U251 CNS = test system: U251 CNS
A498 renal = test system: A498 renal
TK-10 renal = test system: TK-10 renal
K-562 leukemia = test system: K-562 leukemia
SK-MEL-2 melanoma = test system: SK-MEL-2 melanoma
786-0 renal = test system: 786-0 renal
HOP-92 NSCLC = test system: HOP-92 NSCLC
T-47D breast = test system: T-47D breast
NCI/ADR-RES ovarian = test system: NCI/ADR-RES ovarian
SF-295 CNS = test system: SF-295 CNS
CAKI-1 renal = test system: CAKI-1 renal
LOX IMVI melanoma = test system: LOX IMVI melanoma
HT29 colon = test system: HT29 colon
NCI-H460 lung = test system: NCI-H460 lung
SR leukemia = test system: SR leukemia
HS 578T breast = test system: HS 578T breast
UACC-62 melanoma = test system: UACC-62 melanoma
NCI-H522 lung = test system: NCI-H522 lung
RXF 393 renal = test system: RXF 393 renal
SK-MEL-5 melanoma = test system: SK-MEL-5 melanoma
UO-31 renal = test system: UO-31 renal
OVCAR-5 ovarian = test system: OVCAR-5 ovarian
CCRF-CEM leukemia = test system: CCRF-CEM leukemia
PC-3 prostate = test system: PC-3 prostate
SN12C renal = test system: SN12C renal
HCT-116 colon = test system: HCT-116 colon
OVCAR-4 ovarian = test system: OVCAR-4 ovarian
COLO 205 colon = test system: COLO 205 colon
KM12 colon = test system: KM12 colon
HCC-2998 colon = test system: HCC-2998 colon
SF-539 CNS = test system: SF-539 CNS
DU-145 prostate = test system: DU-145 prostate
SK-OV-3 ovarian = test system: SK-OV-3 ovarian
OVCAR-8 ovarian = test system: OVCAR-8 ovarian
MALME-3M melanoma = test system: MALME-3M melanoma
HCT-15 colon = test system: HCT-15 colon
MDA-MB-231 breast = test system: MDA-MB-231 breast
SF-268 CNS = test system: SF-268 CNS
UACC-257 melanoma = test system: UACC-257 melanoma
MOLT-4 leukemia = test system: MOLT-4 leukemia
M14 melanoma = test system: M14 melanoma
SNB-19 CNS = test system: SNB-19 CNS
SNB-75 CNS = test system: SNB-75 CNS
NCI-H23 lung = test system: NCI-H23 lung
A549 NSCLC = test system: A549 NSCLC
RPMI-8226 leukemia = test system: RPMI-8226 leukemia
NCI-H226 lung = test system: NCI-H226 lung
OVCAR-3 ovarian = test system: OVCAR-3 ovarian
HOP-62 NSCLC = test system: HOP-62 NSCLC
BT-549 breast = test system: BT-549 breast
MDA-MB-435 = test system: MDA-MB-435
HL-60(TB) leukemia = test system: HL-60(TB) leukemia
IGROV1 ovarian = test system: IGROV1 ovarian

O=C(CC1(O)C(=O)Nc2c(Cl)ccc(Cl)c21)c1ccc(C2CC2)cc1 (stereo not given)
GI50 (EKVX NSCLC): 2.15 µM | TGI (EKVX NSCLC): 20.7 µM | GI50 (SK-MEL-28 melanoma): 2.51 µM | TGI (SK-MEL-28 melanoma): 21.9 µM | GI50 (SW-620 colon): 0.29 µM | TGI (SW-620 colon): 13 µM | GI50 (MCF7 breast): 0.322 µM | TGI (MCF7 breast): 14.5 µM | GI50 (ACHN renal): 2.19 µM | TGI (ACHN renal): 20.2 µM | GI50 (U251 CNS): 1.13 µM | TGI (U251 CNS): 14.6 µM | GI50 (A498 renal): 0.183 µM | TGI (A498 renal): 0.754 µM | GI50 (TK-10 renal): 11.9 µM | TGI (TK-10 renal): 29.1 µM | GI50 (K-562 leukemia): 0.152 µM | GI50 (SK-MEL-2 melanoma): 2.06 µM | TGI (SK-MEL-2 melanoma): 8.83 µM | GI50 (786-0 renal): 1.78 µM | TGI (786-0 renal): 16.9 µM | GI50 (HOP-92 NSCLC): 0.769 µM | TGI (HOP-92 NSCLC): 14.8 µM | GI50 (T-47D breast): 1.56 µM | TGI (T-47D breast): 27.1 µM | GI50 (NCI/ADR-RES ovarian): 0.406 µM | TGI (NCI/ADR-RES ovarian): 14.7 µM | GI50 (SF-295 CNS): 0.44 µM | TGI (SF-295 CNS): 4.32 µM | GI50 (CAKI-1 renal): 0.449 µM | TGI (CAKI-1 renal): 17.3 µM | GI50 (LOX IMVI melanoma): 0.392 µM | TGI (LOX IMVI melanoma): 14 µM | GI50 (HT29 colon): 0.586 µM | TGI (HT29 colon): 2.22 µM | GI50 (NCI-H460 lung): 0.622 µM | TGI (NCI-H460 lung): 9 µM | GI50 (SR leukemia): 0.106 µM | TGI (SR leukemia): 15.3 µM | GI50 (HS 578T breast): 1.83 µM | TGI (HS 578T breast): 8.58 µM | GI50 (UACC-62 melanoma): 0.508 µM | TGI (UACC-62 melanoma): 17.4 µM | GI50 (NCI-H522 lung): 0.43 µM | TGI (NCI-H522 lung): 1.9 µM | GI50 (RXF 393 renal): 0.632 µM | TGI (RXF 393 renal): 2.64 µM | GI50 (SK-MEL-5 melanoma): 1.37 µM | TGI (SK-MEL-5 melanoma): 13.8 µM | GI50 (UO-31 renal): 1.58 µM | TGI (UO-31 renal): 19.6 µM | GI50 (OVCAR-5 ovarian): 2.05 µM | TGI (OVCAR-5 ovarian): 16.8 µM | GI50 (CCRF-CEM leukemia): 0.843 µM | TGI (CCRF-CEM leukemia): 20.1 µM | GI50 (PC-3 prostate): 1.38 µM | TGI (PC-3 prostate): 16.6 µM | GI50 (SN12C renal): 2.66 µM | TGI (SN12C renal): 20.4 µM | GI50 (HCT-116 colon): 0.375 µM | TGI (HCT-116 colon): 6.05 µM | GI50 (OVCAR-4 ovarian): 12.8 µM | TGI (OVCAR-4 ovarian): 32.2 µM | GI50 (COLO 205 colon): 0.801 µM | TGI (COLO 205 colon): 3.06 µM | GI50 (KM12 colon): 0.445 µM | TGI (KM12 colon): 15.9 µM | GI50 (HCC-2998 colon): 1.85 µM | TGI (HCC-2998 colon): 18.2 µM | GI50 (SF-539 CNS): 0.751 µM | TGI (SF-539 CNS): 5.79 µM | GI50 (DU-145 prostate): 1.63 µM | TGI (DU-145 prostate): 17.8 µM | GI50 (SK-OV-3 ovarian): 1.33 µM | TGI (SK-OV-3 ovarian): 17 µM | GI50 (OVCAR-8 ovarian): 1.43 µM | TGI (OVCAR-8 ovarian): 13.4 µM | GI50 (MALME-3M melanoma): 1.53 µM | TGI (MALME-3M melanoma): 26.8 µM | GI50 (HCT-15 colon): 0.185 µM | TGI (HCT-15 colon): 14.3 µM | GI50 (MDA-MB-231 breast): 2.64 µM | TGI (MDA-MB-231 breast): 21.8 µM | GI50 (SF-268 CNS): 2.98 µM | TGI (SF-268 CNS): 23.4 µM | GI50 (UACC-257 melanoma): 2.48 µM | TGI (UACC-257 melanoma): 24.7 µM | GI50 (MOLT-4 leukemia): 1.19 µM | TGI (MOLT-4 leukemia): 18.1 µM | GI50 (M14 melanoma): 0.422 µM | TGI (M14 melanoma): 3.25 µM | GI50 (SNB-19 CNS): 1.13 µM | TGI (SNB-19 CNS): 16.9 µM | GI50 (SNB-75 CNS): 1.99 µM | TGI (SNB-75 CNS): 9.33 µM | GI50 (NCI-H23 lung): 0.772 µM | TGI (NCI-H23 lung): 23.1 µM | GI50 (A549 NSCLC): 2.09 µM | TGI (A549 NSCLC): 19.8 µM | GI50 (RPMI-8226 leukemia): 0.87 µM | TGI (RPMI-8226 leukemia): 16.5 µM | GI50 (NCI-H226 lung): 3.05 µM | TGI (NCI-H226 lung): 25.5 µM | GI50 (OVCAR-3 ovarian): 3.46 µM | TGI (OVCAR-3 ovarian): 16.6 µM | GI50 (HOP-62 NSCLC): 1.28 µM | TGI (HOP-62 NSCLC): 19.4 µM | GI50 (BT-549 breast): 0.984 µM | TGI (BT-549 breast): 11 µM | GI50 (MDA-MB-435): 0.0882 µM | TGI (MDA-MB-435): 0.272 µM | GI50 (HL-60(TB) leukemia): 0.318 µM | TGI (HL-60(TB) leukemia): 10.3 µM | GI50 (IGROV1 ovarian): 1.5 µM | TGI (IGROV1 ovarian): 18.2 µM
